Holding throughout (assay type): in vivo, C57BL/6J mice
For experiment [1], the system named is p62, LC3, cleaved caspase 3, Bax, HIF1a. Put plainly: Immunoblot of pancreatic tumors: apoptosis, autophagy, HIF1a. The following applies: obestatin 500 nmol/Kg/72 h. How it is done: FIG. 5. Immunoblot analysis of p62, LC3, cleaved caspase 3, Bax, and HIF1a in the pancreatic tumors of C57BL/6J mice (n=4) orthotopically injected with KPC FC1242 cells and treated with vehicle [NaCl, 0.9% (w/v)] or obestatin (500 nmol/Kg/72 h). Results are expressed as fold of control of the non-treated injected mice [control; mean±SE (*, P<0.05)].
(§1) Mice were weighed at set times over the 15-day period. The sterilized surgical material was used for the tissue extraction. Pancreases and muscles were carefully removed from each animal minimizing contamination with surrounding tissue or mouse hair. Pancreases and muscles were weighed. The skeletal muscles selected were: tibialis anterior, TA; extensor digitorum longus, EDL; gastrocnemius, GAST; soleus, SOL; and diaphragm, DIA. Pancreases were also measured with a scale (cm) and pictures were taken. • Histology—Pancreas samples for histology were fixed in 4% paraformaldehyde in PBS at room temperature overnight. After fixation, samples were dehydrated and embedded in paraffin blocks. For this study, 3-micron sections were cut from each block and placed on pre-cleaned slides (Thermo Fisher Scientific, Waltham, MA, USA). The sectioned tissue slides were covered with a thin layer of paraffin, stoked at 60° C. for 1 hour and stored protected from light at room temperature to preserve the antigenicity of sections. • Immunoblot—For immunoblot analysis, pancreases were immediately frozen in dry ice and stored at −80° C. until use. Tissues were homogenized using a TissueLyser II tissue homogenizer (Qiagen, Hilden, DE), in 200 μL of RIPA lysis buffer at 30 Hz for 3 min. The lysates were clarified by centrifugation (18,000×g, 15 min, 4° C.), and the protein concentration was quantified by the Quantipro™ BCA assay kit (Sigma-Aldrich, St. Louis, MO, US).
(§2) Tissues were disrupted and homogenized in ice-cold lysis buffer [50 mM Tris-HCl pH 7.2, 150 mM NaCl, 1 mM EDTA, 1% (v/v) NP-40, 0.25% (w/v) Na-deoxycholate, protease inhibitor cocktail (PIC; 1:100; Sigma Chemical Co., St. Luis, MO, US), phosphatase inhibitor cocktail (PHIC; 1:100; Sigma Chemical Co., St. Luis, MO, US)] with 5 mm stainless steel beads using a TissueLyser (Qiagen, Hilden, DE) at 30 Hz for 3 min. The soluble cell lysates were pre-cleared by centrifuging at 14,000 rpm for 15 min. Supernatants were recovered and the protein was quantified with BCA Protein Assay Kit (Thermo Fisher Scientific, Rockford, IL, US). The same amount of protein for each sample was separated on 7-15% SDS/polyacrylamide gels and transferred to nitrocellulose membranes (Bio-Rad, Hercules, CA, US). The blots were incubated with 5% bovine serum albumin (BSA) in a Tris buffer solution (TBS) containing Tween-20 [TBST; 20 mM Tris-HCl (pH 8.0), 150 mM NaCl, 0.1% (v/v) Tween-20, solution used for all incubation and washing steps] for 1 h. The blots were then incubated with the corresponding primary antibodies and subsequently were incubated with the corresponding peroxidase-conjugated IgG antibody (Table 1). After washing, the signals were visualized using an ECL plus Western Blotting Detection System (Pierce ECL Western Blotting Substrate; Thermo Fisher Scientific, Pierce, Rockford, IL, US). The image processing was performed using the NIH Image Software ImageJ 1.53o (National Institutes of Health, Bethesda, MD, US).
In general terms: In western blotting, separated proteins are transferred to a membrane and probed.

Experiment [2] deals with pNF-kB p65(S536), pSTAT3(S727). In words: Immunoblot of pancreatic tumors: NF-kB and STAT3. The note with it: obestatin 500 nmol/Kg/72 h. The method, then:
FIG. 8. Immunoblot analysis of pNF-kB p65(S536), NF-kB p65, pSTAT3(Y705), pSTAT3(S727), and STAT3 in the pancreatic tumors of C57BL/6J mice (n=4) orthotopically injected with KPC FC1242 cells and treated with vehicle [NaCl, 0.9% (w/v)] or obestatin (500 nmol/Kg/72 h). Results are expressed as fold of control of the non-treated injected mice [control; mean±SE (*, P<0.05)].
as §1, with “The sectioned tissue slides were covered with a thin layer of paraffin, stoked at 60° C. for 1 hour and stored protected from light at room temperature to preserve the antigenicity of sections. • Immunoblot—For immunoblot analysis, pancreases were immediately frozen in dry ice and stored at −80° C. until use. Tissues were homogenized using a TissueLyser II tissue homogenizer (Qiagen, Hilden, DE), in 200 μL of RIPA lysis buffer at 30 Hz for 3 min.” left out, “US). […]” for “US).”

The test system of experiment [3] is pERK1/2(T202/Y204), ERK1/2, pAkt(S473), Akt. In words: Immunoblot of tumoral pancreatic tissue: ERK1/2 and Akt. How it is done:
FIG. 4. (A) Analysis and quantification of Ki67 positive proliferative cells by immunohistochemistry in the pancreatic tumors of C57BL/6J mice (n=4) orthotopically injected with KPC FC1242 cells and treated with vehicle [NaCl, 0.9% (w/v)] or obestatin (500 nmol/Kg/72 h). Magnification: 4×. (B) Immunoblot analysis of pERK1/2(T202/Y204), ERK1/2, pAkt(S473), and Akt in tumoral pancreatic tissue. Results are expressed as fold of control of the non-treated injected mice [control; mean±SE (*, P<0.05)].
as §1, with “The sectioned tissue slides were covered with a thin layer of paraffin, stoked at 60° C. for 1 hour and stored protected from light at room temperature to preserve the antigenicity of sections. • Immunoblot—For immunoblot analysis, pancreases were immediately frozen in dry ice and stored at −80° C. until use. Tissues were homogenized using a TissueLyser II tissue homogenizer (Qiagen, Hilden, DE), in 200 μL of RIPA lysis buffer at 30 Hz for 3 min.” left out
Tissues were disrupted and homogenized in ice-cold lysis buffer [50 mM Tris-HCl pH 7.2, 150 mM NaCl, 1 mM EDTA, 1% (v/v) NP-40, 0.25% (w/v) Na-deoxycholate, protease inhibitor cocktail (PIC; 1:100; Sigma Chemical Co., St. Luis, MO, US), phosphatase inhibitor cocktail (PHIC; 1:100; Sigma Chemical Co., St. Luis, MO, US)] with 5 mm stainless steel beads using a TissueLyser (Qiagen, Hilden, DE) at 30 Hz for 3 min. […] Supernatants were recovered and the protein was quantified with BCA Protein Assay Kit (Thermo Fisher Scientific, Rockford, IL, US). […]

Experiment [4] has as its system aSMA, HSP47, vimentin, collagen I, fibronectin, ADRP. Put plainly: Immunoblot of pancreatic tumors: fibrosis and CAF markers. The following applies: obestatin 500 nmol/Kg/72 h. How it is done: FIG. 6. Immunoblot analysis of aSMA, vimentin, collagen I, fibronectin, and ADPR in the pancreatic tumors of C57BL/6J mice (n=4) orthotopically injected with KPC FC1242 cells and treated with vehicle [NaCl, 0.9% (w/v)] or obestatin (500 nmol/Kg/72 h). Results are expressed as fold of control of the non-treated injected mice [control; mean±SE (*, P<0.05)].
as §1, §2

The mark [5] stands for this setting: obestatin 500 nmol/Kg/72 h, referenced to non-treated animals.

In the case of obestatin, the “increased expression of HIF1a” value in experiment [1] (compared to control or vehicle-treated animals) is on record as 106.6±17.8%. In experiment [1] (pancreatic tumors), the “diminution in LC3-I” value is listed as 9.2±7.5%, the “increase in cleaved caspase 3” value was determined as 264.6±57.7%, the “increase in levels of proapoptotic Bax” value came to 141.6±28.4% and the “reduction in LC3-II levels” value stood at 21.8±7.3%. Also, the “upregulation in p62” value in experiment [1] (pancreatic tumors) came out at 75.7±20.8%. In experiment [2], the “downregulation of pNF-KB p65(S536)” value came out at 43.6±9.0% and the “downregulation of pSTAT3(S727)” value stood at 52.3±12.4%. Besides, the “total expressions of ERK and AKT” value in experiment [3] (Western blotting) is listed as “unchanged”. In addition, in experiment [3] (setting [5]), the “Akt activation augmented, pAkt(S473)” value is reported as 369.5±100.1% and the “reduction in ERK1/2 activation, pERK1/2(T202/Y204)” value is given as ~50%. Further, in experiment [4], the “adipophilin (ADRP) diminished” value is reported as 42.6±8.8%, the augment of vimentin was determined as 111.1±19.1%, the “higher levels of HSP47” value came out at 49.5±17.7% and the “increased expression of aSMA” value is listed as 53.7±7.3%. Moreover, in experiment [4], the “inhibition of expression of collagen” value was 60.1±2.9% and the “inhibition of expression of fibronectin” value turned out to be 57.0±7.1%.
